Test results from PubChem BioAssay AID2060502 (Molecular Pharmacology Branch, DTP, NCI, 2025).

Test system: 885724-159-R-J1-PDC complex spheroid viability
Test: Anticancer human tumor 885724-159-R-J1-PDC patient-derived pancreatic adenocarcinoma cell line growth inhibition [GQUAD]
Conditions: for IC50: curve of first compound; for viability, T/C: stronger effect = lower value
Procedure, shortened: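 Tumor cells were grown as complex spheroids with HUVEC endothelial cells and mesenchymal stem cells as stroma. G-quadruplex stabilizers were combined with targeted agents over half-log dilutions from near the clinical Cmax, or from 10 microM.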
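Also: spheroids exposed to agents for seven days before readout.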
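For viability, T/C in this document: percent of vehicle control viability where 100% = DMSO wells.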

C=CC(=O)N1CCN(c2nc(=O)n(-c3c(C)ccnc3C(C)C)c3nc(-c4c(O)cccc4F)c(F)cc23)C(C)C1 (configuration not stated) + CN(C)c1ccc(Nc2c3ccc(NC(=O)CCN4CCCC4)cc3nc3cc(NC(=O)CCN4CCCC4)ccc23)cc1
IC50 (second compound 0.0316 µM): > 10 µM
IC50 (second compound 0.1 µM): > 10 µM
IC50 (second compound 0.316 µM): > 10 µM
IC50 (second compound 1 µM): > 10 µM
IC50 (second compound 3.16 µM): > 10 µM
IC50 (second compound 10 µM): > 10 µM
viability, T/C (second compound 0.0316 µM, first compound 0.0316 µM): 98.5%
viability, T/C (second compound 0.0316 µM, first compound 0.1 µM): 101%
viability, T/C (second compound 0.0316 µM, first compound 0.316 µM): 96.2%
viability, T/C (second compound 0.0316 µM, first compound 1 µM): 93.4%
viability, T/C (second compound 0.0316 µM, first compound 3.16 µM): 103%
viability, T/C (second compound 0.0316 µM, first compound 10 µM): 95.6%
viability, T/C (second compound 0.1 µM, first compound 0.0316 µM): 101%
viability, T/C (second compound 0.1 µM, first compound 0.1 µM): 106%
viability, T/C (second compound 0.1 µM, first compound 0.316 µM): 96.5%
viability, T/C (second compound 0.1 µM, first compound 1 µM): 98.5%
viability, T/C (second compound 0.1 µM, first compound 3.16 µM): 107%
viability, T/C (second compound 0.1 µM, first compound 10 µM): 87.5%
viability, T/C (second compound 0.316 µM, first compound 0.0316 µM): 90.5%
viability, T/C (second compound 0.316 µM, first compound 0.1 µM): 95.3%
viability, T/C (second compound 0.316 µM, first compound 0.316 µM): 82.6%
viability, T/C (second compound 0.316 µM, first compound 1 µM): 82.5%
viability, T/C (second compound 0.316 µM, first compound 3.16 µM): 103%
viability, T/C (second compound 0.316 µM, first compound 10 µM): 89.2%
viability, T/C (second compound 1 µM, first compound 0.0316 µM): 86.2%
viability, T/C (second compound 1 µM, first compound 0.1 µM): 79.4%
viability, T/C (second compound 1 µM, first compound 0.316 µM): 70.6%
viability, T/C (second compound 1 µM, first compound 1 µM): 79.3%
viability, T/C (second compound 1 µM, first compound 3.16 µM): 85.3%
viability, T/C (second compound 1 µM, first compound 10 µM): 82.3%
viability, T/C (second compound 3.16 µM, first compound 0.0316 µM): 67%
viability, T/C (second compound 3.16 µM, first compound 0.1 µM): 74.1%
viability, T/C (second compound 3.16 µM, first compound 0.316 µM): 84.4%
viability, T/C (second compound 3.16 µM, first compound 1 µM): 69.4%
viability, T/C (second compound 3.16 µM, first compound 3.16 µM): 83.8%
viability, T/C (second compound 3.16 µM, first compound 10 µM): 79.6%
viability, T/C (second compound 10 µM, first compound 0.0316 µM): 64.8%
viability, T/C (second compound 10 µM, first compound 0.1 µM): 76%
viability, T/C (second compound 10 µM, first compound 0.316 µM): 85.2%
viability, T/C (second compound 10 µM, first compound 1 µM): 84.6%
viability, T/C (second compound 10 µM, first compound 3.16 µM): 87.6%
viability, T/C (second compound 10 µM, first compound 10 µM): 73.3%
